Reference: ChEMBL document CHEMBL1201862, “PubChem BioAssay data set” (2004)
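In this assay, cells in 96-well plates receive the compound at five concentrations for 48 hours. Endpoints are linearly interpolated between the surrounding concentrations. GI50 = concentration required for 50% inhibition of growth.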 Active and inactive are the calls of the source. Cut-off read from the data, not from the text of the source: active = GI50 up to about 1.1 µM and inactive = higher.

How the values were obtained:
Assay in all cases: DTP human tumour cell line panel, 48 h
K562 = tested on: K562
KM12 = tested on: KM12
CCRF-CEM = tested on: CCRF-CEM
SN12C = tested on: SN12C
SK-MEL-2 = tested on: SK-MEL-2
A549 = tested on: A549
OVCAR-5 = tested on: OVCAR-5
HOP-92 = tested on: HOP-92
UACC-62 = tested on: UACC-62
HCT-15 = tested on: HCT-15
OVCAR-3 = tested on: OVCAR-3
SK-OV-3 = tested on: SK-OV-3
UACC-257 = tested on: UACC-257
COLO 205 = tested on: COLO 205
U-251 = tested on: U-251
HOP-62 = tested on: HOP-62
SK-MEL-5 = tested on: SK-MEL-5
NCI-H226 = tested on: NCI-H226
UO-31 = tested on: UO-31
SW-620 = tested on: SW-620

| SMILES | GI50 (K562) | GI50 (KM12) | GI50 (CCRF-CEM) | GI50 (SN12C) | GI50 (SK-MEL-2) | GI50 (A549) | GI50 (OVCAR-5) | GI50 (HOP-92) | GI50 (UACC-62) | GI50 (HCT-15) | GI50 (OVCAR-3) | GI50 (SK-OV-3) | GI50 (UACC-257) | GI50 (COLO 205) | GI50 (U-251) | GI50 (HOP-62) | GI50 (SK-MEL-5) | GI50 (NCI-H226) | GI50 (UO-31) | GI50 (SW-620) |
| --- | --- | --- | --- | --- | --- | --- | --- | --- | --- | --- | --- | --- | --- | --- | --- | --- | --- | --- | --- | --- |
| O=C1Cc2c(-c3ccccc3)cc(-c3ccccc3)nc2-c2ccccc2N1 | 8.02 µM (inactive) | 2.84 µM (inactive) | 17.2 µM (inactive) | 4.04 µM (inactive) | 2.66 µM (inactive) | 5.61 µM (inactive) | 3.54 µM (inactive) | 21.3 µM (inactive) | 6.89 µM (inactive) | 1.57 µM | 5.56 µM (inactive) | 5.22 µM (inactive) | 19.6 µM (inactive) | 2.21 µM (inactive) | 3.09 µM (inactive) | 2.64 µM (inactive) | 2.38 µM (inactive) | 5.5 µM (inactive) | 3.71 µM (inactive) | 5.47 µM (inactive) |
| CC(=O)N1N=C(c2ccc3ccccc3c2O)CC1c1cccs1 (stereo not given) | 4.18 µM (inactive) | 14.4 µM (inactive) | 4.04 µM (inactive) | 12.1 µM (inactive) | 19 µM (inactive) | 13.9 µM (inactive) | 32.4 µM (inactive) | 33.7 µM (inactive) | 9.31 µM (inactive) | 14 µM | 7.96 µM (inactive) | 44.3 µM (inactive) | 34.8 µM (inactive) | 20.2 µM (inactive) | 8.09 µM (inactive) | 16.3 µM (inactive) | 18.3 µM (inactive) | 40.1 µM (inactive) | 9.95 µM (inactive) | 16 µM (inactive) |
| O=NN1C(c2ccccc2)CNC(=O)CC1c1ccccc1 (stereo not given) | 22.6 µM (inactive) | 42.9 µM (inactive) | 35.3 µM (inactive) | 53 µM (inactive) | 33.7 µM (inactive) | 44.5 µM (inactive) | > 100 µM (inactive) | 42.8 µM (inactive) | 44.4 µM (inactive) | 36 µM | 22.8 µM (inactive) | 42 µM (inactive) | 36.4 µM (inactive) | 25.8 µM (inactive) | 55.3 µM (inactive) | 37.6 µM (inactive) | 25.3 µM (inactive) | 68.5 µM (inactive) | 36.3 µM (inactive) | 38.1 µM (inactive) |
| NC12CCC(CC1=O)C2 (stereo not given) | > 100 µM (inactive) | > 100 µM (inactive) | > 100 µM (inactive) | > 100 µM (inactive) | > 100 µM (inactive) | > 100 µM (inactive) | > 100 µM (inactive) | > 100 µM (inactive) | > 100 µM (inactive) | > 100 µM | > 100 µM (inactive) | > 100 µM (inactive) | > 100 µM (inactive) | > 100 µM (inactive) | > 100 µM (inactive) | > 100 µM (inactive) | > 100 µM (inactive) | > 100 µM (inactive) | > 100 µM (inactive) | > 100 µM (inactive) |
| O=C1CSC(C(/N=N/c2ccc(Cl)cc2)c2nc3ccccc3[nH]2)=N1 (stereo not given) | 61.8 µM (inactive) | 45.8 µM (inactive) | 10.7 µM (inactive) | > 100 µM (inactive) | 16 µM (inactive) | > 100 µM (inactive) | > 100 µM (inactive) | 54 µM (inactive) | > 100 µM (inactive) | > 100 µM | 36.9 µM (inactive) | 55 µM (inactive) | > 100 µM (inactive) | > 100 µM (inactive) | 53.3 µM (inactive) | 35.2 µM (inactive) | 25.6 µM (inactive) | 0.0105 µM (active) | 39.1 µM (inactive) | > 100 µM (inactive) |
| COc1ccc(-c2c3c(nc4nc(SC)nc(SC)c24)CCCC3)cc1OC | 28.2 µM (inactive) | 81.3 µM (inactive) | 21.3 µM (inactive) | > 100 µM (inactive) | 25.8 µM (inactive) | > 100 µM (inactive) | > 100 µM (inactive) | 40.2 µM (inactive) | 67.6 µM (inactive) | 16 µM | 65.5 µM (inactive) | > 100 µM (inactive) | > 100 µM (inactive) | > 100 µM (inactive) | 70.3 µM (inactive) | 46.8 µM (inactive) | 80.2 µM (inactive) | 56.6 µM (inactive) | 37.1 µM (inactive) | 67.5 µM (inactive) |
